Patent US4945098A, “Novel propane-1,3-diol derivatives and use” (Leo Pharmaceutical Products Ltd. A/S (Lovens Kemiske Fabrik, priority 1985, dated 1990)

Assay: hygroscopicity
Type: physicochemical
Settings: crystals from acetone/ether, monohydrate

hygroscopicity: Hygroscopic
Compound: C=C(COC(=O)CCCCCC[n+]1ccsc1)COC(=O)NCCCCCCCCCCCCCCCCCC [Example 46, 1-Octadecylaminocarbonyloxy-3-[7-(3-thiazolio)heptanoyloxy]-2-methylenepropane bromide]
